Assay [1] concerns youths with autistic disorder. As to the kind of experiment: 12-week single-blind placebo lead-in trial of acamprosate in youths with autistic disorder: behavioral outcome measures. Format: in vivo, human. As to the method:
One study was a 12-week single-blind, placebo-controlled trial of acamprosate in 12 youths with autistic disorder was conducted. The primary outcome measured was the Clinical Global Impression Improvement (CGI-I) scale with several additional behavioral secondary outcome measures employed. In this study, secreted amyloid precursor protein (sAPP) was measured pre- and post acamprosate treatment as blood biomarker assay Result: Twelve subjects (mean age=10.4 yrs.) entered the study and nine subjects completed a two week placebo lead-in and entered active treatment (mean final dose=1,073 mg/day). Six of nine (67%) subjects receiving acamprosate were judged treatment responders with a CGI-I score of 1 “very much improved” or 2 “much improved”. […] Among secondary outcome measures analyzed, significant acamprosate-associated improvement was noted on measures of social behavior and hyperactivity. Acamprosate use was also associated with reductions in sAPP levels.
The first project enrolled 12 youth aged 5 to 17 years with fragile X syndrome and comorbid ASD in a 10-week open-label trial of acamprosate. The second project enrolled 12 youth aged 5 to 17 years diagnosed with idiopathic ASD in a 12-week single-blind placebo lead-in study of acamprosate. In both projects, concomitant dosing of psychotropic drugs remained stable throughout study. In each project, pre- and post-acamprosate treatment plasma levels of sAPP total and sAPPα were obtained. All APP assay samples were collected, chilled, and walked within 2 hours of blood draw to the lab for analysis. Plasma sAPP total and sAPPα were determined separately in serum using the ELISA kit obtained from Immuno Biological Laboratories (IBL, Gumma, Japan). The ELISA kit is validated to measure levels of sAPPα in human samples and able to detect as low as 0.09 ng/ml of sAPPα in a typical sample, with only 0.3% cross-reactivity to sAPP. Levels of sAPP total and sAPPα in plasma were reported in nanograms per milliliter (ng/mL). Statistical analyses of pre- and post-acamprosate sAPP total and sAPPα levels were conducted using paired T-tests. Finally an exploratory post-hoc analysis of potential correlation between percent change in sAPP total or sAPPα and percent change in scores on the Aberrant Behavior Checklist Social Withdrawal/Lethargy subscale (ABC-SW) was conducted. The ABC-SW measures social impairment which is a core symptom domain of ASD. Post-hoc analysis was done with Spearman correlation calculations. All data was analyzed in IBM SPSS Version 20.
A 12-week single-blind, placebo-controlled trial of the effect of acamprosate in the treatment of 12 youths with autistic disorder aged 5 to 17 years was carried out. In order to pilot test use of acamprosate in youth with autism targeting core social impairment, was conducted. All subjects and their family members were blinded to treatment status. All subjects participated in a 2 week placebo-lead-in phase prior to 10 weeks of treatment with acamprosate. For this project, enteric coated commercially available 333 mg acamprosate pills were over-encapsulated and identical matching placebo manufactured for the project. Placebo-responders, defined by a Clinical Global Impressions Improvement scale (CGI-I) score of 1 “very much improved” or 2 “much improved” (ratings anchored to core social deficits) at week 2 were asked to exit the study. During active treatment with acamprosate, dosing was increased in 333 mg increments per week over the first six weeks of active treatment to a maximum dose of 1,332 mg/day (weight<5 60 kg) or 1,998 mg/day (weight>60 kg). During the final four weeks of active drug treatment, subjects were maintained on a stable highest tolerated (optimal) dose. The primary outcome measure was the clinician-rated CGI-I anchored to symptoms of social impairment. […]

For assay [2], the system named is extracellular dopamine. The note with it: rats; dependent on glycine receptor activation; cited from earlier work.
The subject of assay [3] is alcohol withdrawal associated anxiety. The note with it: in vivo; cited from earlier work.

Turning to `CC(=O)NCCCS(=O)(=O)O` [Acamprosate, 3-Acetamidopropane-1-sulfonic acid], in assay [1] (idiopathic ASD, nine subjects receiving acamprosate, mean final dose 1,073 mg/day), the “treatment responders (CGI-I score of 1 or 2)” value came out at 67%. Further, the “mean CGI-I at last visit” value in assay [1] (idiopathic ASD, nine subjects, last observation carried forward) was 2. In assay [1] (idiopathic ASD, baseline 4.22+/-0.4, p=0.013), the CGI-S at endpoint is on record as 3.7+/−0.5. Moreover, in assay [1] (idiopathic ASD, baseline 14.1+/-8.5, p=0.019), the “ABC Lethargy/Social Withdrawal subscale (ABC-SW) at endpoint” value is listed as 10.0+/−8.4. Moreover, in assay [1] (idiopathic ASD, baseline 25.4+/-12.6, p=0.005), the “ABC Hyperactivity subscale at endpoint” value is 16.6+/−12.4. Besides, the ADHD-RS at endpoint in assay [1] (idiopathic ASD, baseline 29.5+/-10.4, p=0.002) is 20.75+/−9.7. Moreover, in assay [1] (idiopathic ASD, baseline 107+/-28, p=0.002), the “SRS total raw score at endpoint” value is listed as 91.4+/−30. Moreover, the “youth judged responders to acamprosate (of those treated)” value in assay [1] (youth with idiopathic ASD) is reported as 6 of 9. For the same compound, the “extracellular dopamine levels in the nucleus accumbens” value in assay [2] is listed as “elevates extracellular dopamine levels in the nucleus accumbens”. Also, in assay [3], the “alcohol withdrawal associated anxiety effects” value was “reduce alcohol withdrawal associated anxiety effects”.

These data come from patent publication US11733243B2, “Use of acamprosate to modulate ERK1/2 activation in animal models for FXS and ASD and individuals diagnosed with FXS and ASD” (Indiana University Research and Technology Corporation, priority 2013, dated 2023).
